According to ChEMBL document CHEMBL1201862, “PubChem BioAssay data set” (2004):
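Tested at 5 concentrations; 48 h exposure; 96-well plates; endpoints linearly interpolated, else capped at highest concentration. At the GI50, growth is halved.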 Active and inactive are the calls of the source. Rule as the data show it: active = GI50 up to about 1.1 µM and inactive = higher.

Tests used:
Assay in all cases: inhibition of tumour cell growth, NCI panel, 48 h
[1] = test system: A549
[2] = test system: K562
[3] = test system: SK-MEL-5
[4] = test system: TK-10
[5] = test system: MDA-MB-231
[6] = test system: OVCAR-3
[7] = test system: HL-60
[8] = test system: SF-295
[9] = test system: DU-145
[10] = test system: SNB-75
[11] = test system: SK-OV-3
[12] = test system: HOP-92
[13] = test system: ACHN
[14] = test system: SK-MEL-2
[15] = test system: CCRF-CEM
[16] = test system: UACC-62
[17] = test system: HCC 2998
[18] = test system: SF-539
[19] = test system: OVCAR-8
[20] = test system: UACC-257

In the case of `CCC(C)(C)/C(CC(O)(C(F)(F)F)C(F)(F)F)=N\O`, the GI50 [1] is reported as > 100 µM (inactive), the GI50 [2] is reported as > 100 µM (inactive) and the GI50 [3] is reported as > 100 µM (inactive). For the same compound, the GI50 [4] was > 100 µM (inactive), the GI50 [5] was > 100 µM (inactive) and the GI50 [6] was > 100 µM (inactive). The GI50 [7] was > 100 µM (inactive), the GI50 [8] was > 100 µM (inactive) and the GI50 [9] was > 100 µM (inactive). The GI50 [10] was > 100 µM (inactive), the GI50 [11] was > 100 µM (inactive) and the GI50 [12] was > 100 µM (inactive). The GI50 [13] was > 100 µM (inactive), the GI50 [14] was > 100 µM (inactive) and the GI50 [15] was > 100 µM (inactive). For the same compound, the GI50 [16] was > 100 µM (inactive), the GI50 [17] was > 100 µM (inactive) and the GI50 [18] was > 100 µM (inactive).
With `C(=N/c1ccccc1C1SCCCS1)/c1ccccc1` the GI50 [1] was > 100 µM (inactive), the GI50 [2] was > 100 µM (inactive) and the GI50 [3] was > 100 µM (inactive). For the same compound, the GI50 [4] was > 100 µM (inactive), the GI50 [5] was > 100 µM (inactive) and the GI50 [19] was > 100 µM (inactive). The GI50 [6] was > 100 µM (inactive), the GI50 [7] was 82.6 µM (inactive) and the GI50 [8] was > 100 µM (inactive). The GI50 [20] was > 100 µM (inactive), the GI50 [9] was > 100 µM (inactive) and the GI50 [10] was > 100 µM (inactive). The GI50 [11] was > 100 µM (inactive), the GI50 [12] was > 100 µM (inactive) and the GI50 [13] was > 100 µM (inactive). For the same compound, the GI50 [14] was > 100 µM (inactive), the GI50 [15] was > 100 µM (inactive) and the GI50 [16] was > 100 µM (inactive). For the same compound, the GI50 [17] was > 100 µM (inactive) and the GI50 [18] was > 100 µM (inactive).
For `CCC[C@H](N[S+]([O-])c1ccc(C)cc1)C(C(=O)OCC)=C(c1ccccc1)c1ccccc1` (stereo partly drawn), the GI50 [1] was 21.5 µM (inactive), the GI50 [2] was 21.3 µM (inactive) and the GI50 [3] was 22.1 µM (inactive). For the same compound, the GI50 [4] was 28.6 µM (inactive), the GI50 [5] was 18.7 µM (inactive) and the GI50 [19] was 27.4 µM (inactive). For the same compound, the GI50 [7] was 21.4 µM (inactive), the GI50 [8] was 17.8 µM (inactive) and the GI50 [20] was 16.1 µM (inactive). For the same compound, the GI50 [9] was 18.9 µM (inactive), the GI50 [10] was 17.8 µM (inactive) and the GI50 [11] was 24.6 µM (inactive). The GI50 [12] was 15.1 µM (inactive), the GI50 [13] was 22.4 µM (inactive) and the GI50 [14] was 14.5 µM (inactive). For the same compound, the GI50 [15] was 26 µM (inactive), the GI50 [16] was 13.4 µM (inactive) and the GI50 [17] was 3.13 µM (inactive). For the same compound, the GI50 [18] was 22.9 µM (inactive).
With `CNc1cccc(-c2cc(O)c3cc4c(cc3n2)OCO4)c1` the GI50 [1] was 0.664 µM (active), the GI50 [2] was 0.201 µM (active) and the GI50 [3] was 0.0847 µM (active). The GI50 [4] was 1.42 µM (inactive), the GI50 [5] was 0.407 µM (active) and the GI50 [19] was 0.409 µM (active). For the same compound, the GI50 [6] was 0.126 µM (active), the GI50 [7] was 0.198 µM (active) and the GI50 [8] was 2.28 µM (inactive). The GI50 [9] was 0.303 µM (active), the GI50 [10] was 1.8 µM (inactive) and the GI50 [11] was 0.256 µM (active). The GI50 [12] was 0.533 µM (active), the GI50 [13] was 0.883 µM (active) and the GI50 [14] was 0.385 µM (active). The GI50 [15] was 0.236 µM (active), the GI50 [16] was 0.153 µM (active) and the GI50 [17] was 0.322 µM (active). For the same compound, the GI50 [18] was 0.198 µM (active).
In the case of `Cc1ccc(C(=O)O)cc1S(=O)(=O)Nn1cnc2ccc(S(=O)(=O)Nc3ccccc3C(=O)O)cc2c1=O`, the GI50 [1] is reported as > 100 µM (inactive), the GI50 [2] is reported as 1.78 µM (inactive) and the GI50 [4] is reported as > 100 µM (inactive). The GI50 [5] was > 100 µM (inactive), the GI50 [19] was > 100 µM (inactive) and the GI50 [6] was > 100 µM (inactive). The GI50 [7] was > 100 µM (inactive), the GI50 [8] was 26.1 µM (inactive) and the GI50 [20] was > 100 µM (inactive). The GI50 [9] was > 100 µM (inactive), the GI50 [10] was > 100 µM (inactive) and the GI50 [11] was > 100 µM (inactive). The GI50 [12] was > 100 µM (inactive), the GI50 [13] was > 100 µM (inactive) and the GI50 [14] was 61 µM (inactive). The GI50 [15] was > 100 µM (inactive), the GI50 [16] was 8.93 µM (inactive) and the GI50 [17] was > 100 µM (inactive). For the same compound, the GI50 [18] was > 100 µM (inactive).
`O=CN1CCN(C(=O)c2ccc(Cl)cc2)C1=S` was tested, and the GI50 [1] was 14.9 µM (inactive), the GI50 [2] was 12.9 µM (inactive) and the GI50 [4] was 15 µM (inactive). For the same compound, the GI50 [5] was 16.4 µM (inactive), the GI50 [19] was 15.6 µM (inactive) and the GI50 [6] was 15.4 µM (inactive). The GI50 [7] was 23.3 µM (inactive), the GI50 [8] was 26.9 µM (inactive) and the GI50 [20] was 17.5 µM (inactive). For the same compound, the GI50 [9] was 15.7 µM (inactive), the GI50 [10] was 20 µM (inactive) and the GI50 [11] was 25.1 µM (inactive). The GI50 [12] was 0.714 µM (active), the GI50 [13] was 17.3 µM (inactive) and the GI50 [14] was 16.3 µM (inactive). The GI50 [15] was 12.8 µM (inactive), the GI50 [16] was 15.9 µM (inactive) and the GI50 [17] was 19.8 µM (inactive). The GI50 [18] was 26.6 µM (inactive).
With `CCCCC(=O)c1c(O)ccc2c(C)cc(=O)oc12` the GI50 [1] was 73.3 µM (inactive), the GI50 [2] was > 100 µM (inactive) and the GI50 [3] was 53.5 µM (inactive). The GI50 [4] was > 100 µM (inactive), the GI50 [5] was 67.8 µM (inactive) and the GI50 [19] was > 100 µM (inactive). For the same compound, the GI50 [6] was > 100 µM (inactive), the GI50 [7] was > 100 µM (inactive) and the GI50 [8] was > 100 µM (inactive). For the same compound, the GI50 [20] was > 100 µM (inactive), the GI50 [9] was 64.9 µM (inactive) and the GI50 [10] was > 100 µM (inactive). For the same compound, the GI50 [12] was 36.3 µM (inactive), the GI50 [13] was 96.6 µM (inactive) and the GI50 [14] was 3.14 µM (inactive). The GI50 [15] was 82.2 µM (inactive), the GI50 [16] was > 100 µM (inactive) and the GI50 [17] was 45.8 µM (inactive). For the same compound, the GI50 [18] was > 100 µM (inactive).
